Test results as given in patent US20250268873A1, “COMBINATION OF DUAL ATM AND DNA-PK INHIBITORS AND IMMUNOTHERAPEUTIC AGENTS FOR USE IN CANCER THERAPY” (XRAD THERAPEUTICS, INC., priority 2021, published 2025).

Legend:
ATM = ATM (Homo sapiens (Human), UniProt Q13315); experiment: Pharmacodynamic assay, pKAP1/KAP1 in FADU tumors; assay type: in vivo; settings: for pKAP1/KAP1: FADU tumors
Procedure: FADU or MDA-MB-231 cells were harvested during log phase growth for in vivo implantation. The resuspended cells were washed three times in phosphate buffered saline (PBS) before preparing the working dilution in PBS. FADU cells were diluted to 1×10^7 cells/mL and MDA-MB-231 cells were diluted to 5×10^7 cells/mL. Each mouse was injected subcutaneously in the right flank with 100 μL of the cellular suspension. Tumor growth was monitored until the tumors reached a target volume of at least 100 mm^3, at which point mice were randomly stratified into four treatment groups.
Tumor studies were performed as follows. Mice bearing FADU or MDA-231 tumors were pre-dosed with vehicle alone or compound 569 alone at 3, 6, and 10 mg/kg. Tumors were then irradiated with 10 Gy 45 min after vehicle or compound 569 administration or left unirradiated (vehicle and compound 569 at 10 mg/kg). Tumors were harvested 1 h post radiation.
Tissue homogenates for pharmacodynamic analyses were collected and processed as follows. Tumor tissues from FADU or MDA-MB-231 tumors were flash frozen in liquid nitrogen and pulverized on dry ice using a tissue pulverizer. A portion of the tumor powder was transferred into a microtube, followed by addition of 500 μL of RIPA buffer [[…], pH 8.0, 150 mM NaCl, 0.1% SDS, 0.5% sodium deoxycholate, 1% IGEPAL® CA-630 (Sigma, I8896)]. To 10 ml of RIPA buffer, 2 tablets each of Protease inhibitor and Phosphatase inhibitor (Roche, #04693159001 & #04906837001), 200 μL of 0.1 M PMSF and 160 μL of Aprotinin, (Sigma, A6279) were added. The suspension was homogenized on ice with a pellet pestle motor (KONTES) and incubated on ice for 30 minutes. Cell lysates were centrifuged at 13,200 rpm for 15 min at 4° C. and supernatants were transferred to a new tube and analyzed for protein concentration with a BCA kit (Pierce, 23227), followed by immunoblotting.

DNA-PK and ATM kinases = experiment: Immunoblot of radiation-induced phosphorylation in MCF7 cells; assay type: cell-based, human; settings: 20, 100, 500, 1000 nM, 30 min pre-treatment, 10 Gy IR
Excerpt: Antibodies recognizing phosphorylated/activated ATM (S1981, #ab81292) and DNA-PKcs (S2056, #ab18192) were purchased from Abcam Biotechnology (Cambridge, MA). Antibodies to ATM (#A1106) and DNA-PKcs (#ab1832) were from Sigma and Abcam, respectively. Phospho-KAP1 (S824, #A300-767A) and KAP1 (A700-014) antibodies were from Bethyl Labs (Montgomery, TX). Phospho-TBK1 (#5483), cGAS (#15102), and pSTING (S366, #19781S) antibodies were from Cell Signaling Technology (CST) (Danvers, MA). STING (PA5-23381) antibodies were from ThermoFisher Scientific (Waltham, MA), and actin (#A5316) antibodies were from Sigma. […]
Cells were pretreated with Compound 569 at 20, 100, 500, or 1000 nM or DMSO for 30 min and then irradiated with 0 or 10 Gy (XRAD 160, Precision X Ray) as shown in FIG. 1. […] One hour after IR, cells were lysed in RIPA buffer ([…], pH 8.0, 150 mM NaCl, 0.1% SDS, 0.5% sodium deoxycholate, 1% IGEPAL® CA-630 (Sigma, 18896) for 20 min at 4° C. in the presence of protease and phosphatase inhibitor cocktails (Roche, #04693159001 & #04906837001). Cell lysates were centrifuged at 13,200 g for 10 min at 4° C. and supernatants were analyzed for protein content using BCA assay (Pierce™ BCA Protein Assay Kit, cat #23227, ThermoFisher Waltham, MA 02451) and equal amounts of protein/lane were used for subsequent immunoblot analyses. Proteins were denatured by adding NuPAGE LSD Sample Buffer [4×] […]

Sequence of ATM (Q13315 whole entry): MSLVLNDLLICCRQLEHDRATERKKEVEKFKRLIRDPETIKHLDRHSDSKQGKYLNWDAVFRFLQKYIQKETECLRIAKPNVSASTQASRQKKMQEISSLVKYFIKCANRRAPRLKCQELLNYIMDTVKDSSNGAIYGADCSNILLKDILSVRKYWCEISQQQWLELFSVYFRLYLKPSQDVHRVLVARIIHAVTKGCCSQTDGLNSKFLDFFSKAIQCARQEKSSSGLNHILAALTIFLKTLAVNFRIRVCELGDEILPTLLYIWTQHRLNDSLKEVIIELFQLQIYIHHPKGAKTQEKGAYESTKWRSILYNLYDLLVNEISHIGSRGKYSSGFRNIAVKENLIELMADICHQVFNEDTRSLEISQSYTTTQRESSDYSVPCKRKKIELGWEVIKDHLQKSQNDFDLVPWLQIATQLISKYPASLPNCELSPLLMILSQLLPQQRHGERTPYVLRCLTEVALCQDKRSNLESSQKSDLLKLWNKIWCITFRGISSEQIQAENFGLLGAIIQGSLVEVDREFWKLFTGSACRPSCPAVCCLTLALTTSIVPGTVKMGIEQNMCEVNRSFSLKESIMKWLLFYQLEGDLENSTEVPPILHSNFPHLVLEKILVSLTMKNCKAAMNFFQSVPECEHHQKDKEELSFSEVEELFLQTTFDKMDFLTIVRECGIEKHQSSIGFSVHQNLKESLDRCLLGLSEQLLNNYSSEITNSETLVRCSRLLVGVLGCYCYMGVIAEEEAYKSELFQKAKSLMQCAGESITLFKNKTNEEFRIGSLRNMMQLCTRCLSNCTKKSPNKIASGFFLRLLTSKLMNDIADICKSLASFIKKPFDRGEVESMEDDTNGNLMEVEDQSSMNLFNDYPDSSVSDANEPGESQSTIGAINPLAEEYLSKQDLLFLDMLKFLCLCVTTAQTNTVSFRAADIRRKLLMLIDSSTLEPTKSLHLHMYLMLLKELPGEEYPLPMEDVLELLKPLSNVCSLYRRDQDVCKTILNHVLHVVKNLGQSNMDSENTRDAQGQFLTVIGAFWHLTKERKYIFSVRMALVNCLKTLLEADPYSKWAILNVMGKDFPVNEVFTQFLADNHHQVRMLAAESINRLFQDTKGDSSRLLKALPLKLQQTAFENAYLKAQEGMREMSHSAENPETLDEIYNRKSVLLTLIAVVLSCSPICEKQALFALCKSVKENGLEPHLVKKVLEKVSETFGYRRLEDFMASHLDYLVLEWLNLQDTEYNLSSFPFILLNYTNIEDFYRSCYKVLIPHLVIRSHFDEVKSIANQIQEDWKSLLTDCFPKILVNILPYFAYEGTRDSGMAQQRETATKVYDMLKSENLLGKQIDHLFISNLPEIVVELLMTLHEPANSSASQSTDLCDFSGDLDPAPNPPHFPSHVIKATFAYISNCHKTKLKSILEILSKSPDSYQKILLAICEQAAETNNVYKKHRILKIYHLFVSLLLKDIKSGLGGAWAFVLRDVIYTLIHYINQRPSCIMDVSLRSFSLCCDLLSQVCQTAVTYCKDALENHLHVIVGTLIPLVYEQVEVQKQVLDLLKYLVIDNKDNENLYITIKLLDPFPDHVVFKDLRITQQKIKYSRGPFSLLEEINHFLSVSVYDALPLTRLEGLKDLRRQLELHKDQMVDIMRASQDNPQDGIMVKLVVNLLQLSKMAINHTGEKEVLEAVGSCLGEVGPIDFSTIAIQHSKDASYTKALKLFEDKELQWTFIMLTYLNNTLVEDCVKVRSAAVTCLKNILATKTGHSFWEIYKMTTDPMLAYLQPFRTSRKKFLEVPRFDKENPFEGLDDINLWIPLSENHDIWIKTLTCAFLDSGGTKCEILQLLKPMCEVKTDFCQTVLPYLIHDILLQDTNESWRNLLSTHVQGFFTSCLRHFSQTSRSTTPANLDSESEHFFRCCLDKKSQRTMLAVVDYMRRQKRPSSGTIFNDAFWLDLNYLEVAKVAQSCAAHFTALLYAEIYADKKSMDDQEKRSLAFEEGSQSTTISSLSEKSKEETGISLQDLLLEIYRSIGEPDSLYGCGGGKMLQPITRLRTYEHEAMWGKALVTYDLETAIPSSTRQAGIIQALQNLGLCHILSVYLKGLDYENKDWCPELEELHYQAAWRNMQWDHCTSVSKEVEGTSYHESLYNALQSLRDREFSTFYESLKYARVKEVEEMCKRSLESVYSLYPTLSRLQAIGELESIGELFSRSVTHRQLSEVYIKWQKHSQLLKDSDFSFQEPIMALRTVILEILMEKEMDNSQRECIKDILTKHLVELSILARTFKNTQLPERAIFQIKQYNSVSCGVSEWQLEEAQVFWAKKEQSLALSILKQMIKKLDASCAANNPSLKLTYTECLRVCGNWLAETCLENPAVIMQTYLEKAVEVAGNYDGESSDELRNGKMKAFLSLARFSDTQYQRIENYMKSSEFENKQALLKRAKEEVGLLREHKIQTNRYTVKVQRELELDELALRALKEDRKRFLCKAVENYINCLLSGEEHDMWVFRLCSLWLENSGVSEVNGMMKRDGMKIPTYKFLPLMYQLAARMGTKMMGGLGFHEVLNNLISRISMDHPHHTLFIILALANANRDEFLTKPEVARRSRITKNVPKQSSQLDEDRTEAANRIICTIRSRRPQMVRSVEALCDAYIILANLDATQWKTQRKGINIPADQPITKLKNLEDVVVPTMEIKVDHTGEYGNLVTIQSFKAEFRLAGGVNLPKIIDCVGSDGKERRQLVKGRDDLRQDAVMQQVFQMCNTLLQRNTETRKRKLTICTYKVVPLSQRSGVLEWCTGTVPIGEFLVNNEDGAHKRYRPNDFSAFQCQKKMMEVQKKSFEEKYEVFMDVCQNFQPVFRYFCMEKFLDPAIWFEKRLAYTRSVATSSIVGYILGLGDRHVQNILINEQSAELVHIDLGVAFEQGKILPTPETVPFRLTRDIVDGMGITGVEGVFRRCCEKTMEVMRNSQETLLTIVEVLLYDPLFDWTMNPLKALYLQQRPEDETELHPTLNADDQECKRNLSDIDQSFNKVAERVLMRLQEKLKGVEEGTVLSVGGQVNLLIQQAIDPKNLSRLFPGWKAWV

CC(C)NCCOc1ncc(-c2cc3c4c(cnc3cc2F)N(C)C(=O)C42CCC2)cc1NS(C)(=O)=O [Compound 569, N-(5-(7′-Fluoro-3′-methyl-2′-oxo-2′,3′-dihydrospiro[cyclobutane-1,1′-pyrrolo[2,3-c]quinolin]-8′-yl)-2-(2-(isopropylamino)ethoxy)pyridin-3-yl)methanesulfonamide]
inhibition at 10 mg/kg (ATM; 10 mg/kg, 10 Gy, FADU and MDA231 tumors (FIGS. 4 and 5), read-out: inhibition of tumor levels of radiation-induced phosphorylation of KAP1): > 80% | pKAP1/KAP1 (ATM; 10 Gy, 3 mg/kg oral): 0.0903 | pKAP1/KAP1 (ATM; 10 Gy, 6 mg/kg oral): 0.0982 | pKAP1/KAP1 (ATM; 10 Gy, 10 mg/kg oral): 0.156 | pKAP1/KAP1 (ATM; no radiation, 10 mg/kg oral): 0.00595 | inhibition of radiation-induced phosphorylation of DNA-PKcs (Ser2056), ATM (Ser1981) and KAP1 (ser824) (DNA-PK and ATM kinases): potent dose-dependent inhibition
